The results in this text go back to PubChem BioAssay (NCI).

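In this assay, cells in 96-well plates receive the compound at five concentrations for 48 hours. Endpoints are linearly interpolated between the surrounding concentrations. The concentration for full growth arrest is given as TGI.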 A value given as a limit tells only on which side of the number the result lay.

Common to all, as to assay: NCI-60 cell line screen, 48 h
Assay [1] concerns HL-60(TB) leukemia.
For assay [2], the system named is SW-620 colon.
Assay [3] concerns OVCAR-4 ovarian.
The subject of assay [4] is NCI/ADR-RES ovarian.
The subject of assay [5] is U251 CNS.
The subject of assay [6] is HCC-2998 colon.
The test system of assay [7] is SK-MEL-5 melanoma.
Assay [8] deals with MDA-MB-435.
The test system of assay [9] is PC-3 prostate.
The subject of assay [10] is TK-10 renal.

As for `CC(C)NC(=O)OCc1c(CO)c2c(n1C)-c1ccccc1CC2`, the TGI in assay [1] was over 58.3 µM; in [2] it was 38.8 µM; in assay [3] it was 73 µM; in assay [4] it was 61.4 µM; in assay [5] it was over 61.4 µM; in assay [6] it was 57.4 µM. The same compound came in with a TGI in assay [7] of 71 µM.
With `O=C(CN1CCOCC1)c1ccc2c(c1)oc(=O)n2CCN1CCOCC1`, the TGI in assay [1], in assay [2], in assay [8], in [4], in assay [5] and in [9] was over 100 µM each time. This compound had a TGI in assay [7] of over 100 µM.
For the compound `COC(=O)c1ccc(N=NN(C)COc2ccc(Br)cc2)cc1`, the TGI in assay [1] was 59.7 µM; in assay [2], over 100 µM; in assay [3], over 100 µM; in assay [4] it was over 100 µM; in [5] it was over 100 µM; in [6], 87.7 µM. The same compound displayed a TGI in [7] of over 100 µM.
Regarding `CCOc1ccc(N/C(=C(/C(Cl)=C(/Cl)N2CCCCC2)[N+](=O)[O-])n2nnc3ccccc32)cc1`, the TGI in assay [8] amounted to 32.3 µM; in [4], 43.5 µM; in [5] it was 30.8 µM; in assay [6], 59.2 µM; in [9], 26.1 µM; in [7] it was 29.9 µM. This compound returned a TGI in [10] of over 100 µM.
Consider `Cc1ccc(/C(O)=C/C(=O)C(=O)NC23CC4CC(CC(C4)C2)C3)cc1`, for which the TGI in assay [1], in assay [2], in assay [3], in assay [8], in [6] and in assay [9] was over 10 µM in each case. The TGI in assay [7] and in assay [10] was over 10 µM each time.
Regarding `NCCCC[C@H](N)C(=O)Nc1ccc(-c2nc3ccccc3s2)cc1`, the TGI is 30.6 µM in assay [2]; over 100 µM in assay [3]; 35.1 µM in assay [8]; 59.7 µM in assay [4]; 29.4 µM in assay [5]; 81.5 µM in assay [6]. For the same compound, the TGI in [9] is over 100 µM; in assay [7], 94.4 µM; in [10] it was over 100 µM.
For `CC(=O)Nc1ccc2c3c(cc(O)c2c1)N(C(=O)CCCCCCC(=O)N1CC(CCl)c2c1cc(O)c1cc(NC(C)=O)ccc21)CC3CCl` (configuration not stated), the TGI is over 100 µM in [2]; over 100 µM in [3]; 0.0604 µM in assay [8]; over 74.6 µM in assay [4]; 1.13 µM in assay [9]; under 0.0109 µM in assay [7]. This compound returned a TGI in assay [10] of 0.0702 µM.
Regarding `CCC(=O)Nc1ccc(NC(C#N)c2cccc(Oc3ccccc3)c2)cc1` (configuration not stated), the TGI in [1] is 46.8 µM; in [2], over 100 µM; in assay [3], over 100 µM; in assay [8], over 100 µM; in assay [4], over 100 µM; in [9], over 100 µM. The same compound registered a TGI in assay [7] of 48.1 µM.
Regarding `CC(C)NC(=O)N(Nc1ccccc1)C(C)(C)C`, the TGI in [1], in assay [2], in assay [3], in assay [4], in [5] and in assay [6] was over 100 µM each time. In addition, the TGI in assay [9], in assay [7] and in assay [10] was over 100 µM throughout.
In the case of `O=c1[nH]nc(-c2ccccc2)n1/N=C/c1cccs1`, the TGI was over 100 µM in [2]; 62 µM in [3]; 79.5 µM in assay [8]; 93.8 µM in assay [4]; over 100 µM in assay [5]; over 100 µM in [6]. Further, in [9], the TGI is over 100 µM.
As to `C=CCN(C(=O)OC(C)(C)C)[C@H](C)C(=O)N[C@@H](C)C(=O)OC`, the TGI in assay [1], in assay [2], in [3], in assay [8], in assay [4] and in [5] was over 100 µM throughout. The TGI in assay [9] and in [7] was over 100 µM each time.
On to `CC(=O)OCC1OC(Nn2c(=O)[nH]c3ccccc3c2=O)C(OC(C)=O)C(OC(C)=O)C1OC(C)=O` (configuration not stated), for which the TGI is over 100 µM in assay [1]; over 100 µM in assay [2]; over 100 µM in assay [8]; over 100 µM in [4]; over 100 µM in [5]; 53 µM in assay [6]. The TGI in [9] and in assay [7] was over 100 µM throughout.
Regarding `C=C(CCC/C(C)=C/C=C/[C@@H](C)CCCc1ccoc1)C[C@@H]1OC(=O)[C@H](C)[C@@H]1O`, the TGI turned out to be 23.7 µM in assay [2]; 20.1 µM in [3]; 16.3 µM in assay [8]; 19.9 µM in assay [4]; 25.4 µM in assay [5]; 24.8 µM in assay [6]. Further, the TGI in assay [9] turned out to be 15.6 µM; in [7] it was 14.3 µM; in assay [10], 25.8 µM.
Consider `O=[N+]([O-])C(=C(N1CCOCC1)N1CCOCC1)/C(Cl)=C(\Cl)Br`, for which the TGI in assay [1] is 16.9 µM; in [2] it was 28.8 µM; in assay [3], 39.5 µM; in assay [4] it was 52.9 µM; in assay [5], 39.9 µM; in [6], over 100 µM. This compound gave a TGI in [9] of over 100 µM.
For the compound `CC(C)N=C(N)NC#N`, the TGI in assay [1], in assay [2], in [3] and in assay [6] was over 100 µM in each case.
Consider `O=C1c2ccccc2-c2nnc3c(c21)-c1ccccc1C3`, for which the TGI in [1], in assay [2], in [8], in [4], in assay [5] and in [9] was over 100 µM throughout. The compound also returned a TGI in [7] of over 100 µM.
`CC(C)=CCC/C(C)=C/CC/C(C)=C/CC/C(C)=C/CC/C(C)=C/CC/C(C)=C/CC/C(C)=C/CC/C(C)=C/CC/C(C)=C/CO`: the TGI in assay [1], in [2], in [3], in [8], in assay [5] and in [6] was over 100 µM throughout. The TGI in [9], in assay [7] and in [10] was over 100 µM throughout.
